Test results from patent publication US20260176267A1, “PREPARATION OF IMIDAZOPYRIDINE AND IMIDAZOPYRIDAZINE DERIVATIVES AS NOVEL DIACYLGLYCERIDE O-ACYLTRANSFERASE 2 INHIBITORS” (Merck Sharp & Dohme LLC, priority 2022, published 2026).

Target: T1, human DGAT2 (hDGAT2) (Homo sapiens, UniProt Q96PD7)
T1 construct: made in house; host or cells: Sf-9 insect cells (baculovirus), membrane fraction
T1 sequence (Q96PD7 1-388): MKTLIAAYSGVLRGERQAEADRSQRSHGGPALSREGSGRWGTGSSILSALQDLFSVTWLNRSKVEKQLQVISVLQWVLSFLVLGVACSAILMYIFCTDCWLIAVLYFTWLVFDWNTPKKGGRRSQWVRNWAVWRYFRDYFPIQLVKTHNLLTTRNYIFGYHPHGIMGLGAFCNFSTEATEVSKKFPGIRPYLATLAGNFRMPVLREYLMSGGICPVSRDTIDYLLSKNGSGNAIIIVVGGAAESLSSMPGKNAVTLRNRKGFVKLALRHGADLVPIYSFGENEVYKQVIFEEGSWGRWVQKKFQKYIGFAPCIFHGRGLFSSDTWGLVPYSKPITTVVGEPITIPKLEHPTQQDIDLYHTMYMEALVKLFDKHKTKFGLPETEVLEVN
Experiment: DGAT2 Enzymatic Activity Assay
Type: biochemical
Settings: membrane prep of Sf-9 cells expressing hDGAT2; 13C18-triolein product by LC/MS/MS; 25 μM diolein, 5 μM 13C oleoyl-CoA, rt
Procedure, shortened: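 Membranes from Sf-9 cells expressing untagged human DGAT2 (baculovirus, 48 h) used as enzyme at rt. The product ^13C18-triolein is quantified by LC/MS/MS against a ^13C21-triolein internal standard. Percent inhibition is taken from high and low controls, and IC50 is derived.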

Row | SMILES | IC50
1 | Cc1c(C(=O)NC2(C)CCS(=O)(=O)C(C)(C)C2)nc2ccc(Oc3ncc(Cl)cc3OCC(F)F)cn12 (stereo not shown) [Example 100, 6-[[5-chloro-3-(2,2-difluoroethoxy)-2-pyridyl]oxy]-3-methyl-N-(2,2,4-trimethyl-1,1-dioxo-thian-4-yl)imidazo[1,2-a]pyridine-2-carboxamide] | 114 nM
2 | Cc1c(C(=O)N[C@]2(C)CCS(=O)(=O)C2)nc2ccc(Oc3ncc(F)cc3OCC(F)(F)F)cn12 [Example 101] | 88 nM
3 | Cc1c(C(=O)NC2(C)CCN(C(=O)C(F)(F)F)CC2)nc2ccc(Oc3ncc(F)cc3OCC(F)(F)F)cn12 [Example 102, 6-[[5-fluoro-3-(2,2,2-trifluoroethoxy)-2-pyridyl]oxy]-3-methyl-N-[4-methyl-1-(2,2,2-trifluoroacetyl)-4-piperidyl]imidazo[1,2-a]pyridine-2-carboxamide] | 128 nM
4 | Cc1c(C(=O)NC2(C)CS(=O)(=O)C2)nc2ccc(Oc3ncc(C(F)(F)F)nc3OCC(F)(F)F)cn12 [Example 103, 3-methyl-N-(3-methyl-1,1-dioxo-thietan-3-yl)-6-[3-(2,2,2-trifluoroethoxy)-5-(trifluoromethyl)pyrazin-2-yl]oxy-imidazo[1,2-a]pyridine-2-carboxamide] | 71 nM
5 | Cc1c(C(=O)NC2(C)CCS(=O)(=O)CC2)nc2ccc(Oc3ncc(F)cc3OCC(F)(F)C(F)F)cn12 [Example 104, 6-[[5-fluoro-3-(2,2,3,3-tetrafluoropropoxy)-2-pyridyl]oxy]-3-methyl-N-(4-methyl-1,1-dioxo-thian-4-yl)imidazo[1,2-a]pyridine-2-carboxamide] | 342 nM
6 | Cc1c(C(=O)NC2CCS(=O)(=O)C(C)(C)C2)nc2ccc(Oc3ncc(F)cc3OCC(F)(F)F)cn12 (stereo not shown) [Example 105, N-(2,2-dimethyl-1,1-dioxo-thian-4-yl)-6-[[5-fluoro-3-(2,2,2-trifluoroethoxy)-2-pyridyl]oxy]-3-methyl-imidazo[1,2-a]pyridine-2-carboxamide] | 193 nM
7 | CCC1(NC(=O)c2nc3ccc(Oc4nccnc4OCC(F)(F)F)cn3c2C)CCS(=O)(=O)CC1 [Example 106, N-(4-ethyl-1,1-dioxo-thian-4-yl)-3-methyl-6-[3-(2,2,2-trifluoroethoxy)pyrazin-2-yl]oxy-imidazo[1,2-a]pyridine-2-carboxamide] | 638 nM
8 | Cc1ccnc(Oc2ccc3nc(C(=O)NC4(C)CCS(=O)(=O)CC4)c(C)n3c2)c1OCC(F)(F)F [Example 107, 3-methyl-N-(4-methyl-1,1-dioxo-thian-4-yl)-6-[[4-methyl-3-(2,2,2-trifluoroethoxy)-2-pyridyl]oxy]imidazo[1,2-a]pyridine-2-carboxamide] | 634 nM
9 | Cc1cnc(OCC(F)(F)F)c(Oc2ccc3nc(C(=O)NC4(C)CCS(=O)(=O)CC4)c(C)n3c2)n1 [Example 108, 3-methyl-N-(4-methyl-1,1-dioxo-thian-4-yl)-6-[6-methyl-3-(2,2,2-trifluoroethoxy)pyrazin-2-yl]oxy-imidazo[1,2-a]pyridine-2-carboxamide] | 131 nM
10 | Cc1c(C(=O)NC2(C)CCS(=O)(=O)CC2)nc2ccc(Oc3nccc(Cl)c3OCC(F)(F)F)cn12 [Example 109, 6-[[4-chloro-3-(2,2,2-trifluoroethoxy)-2-pyridyl]oxy]-3-methyl-N-(4-methyl-1,1-dioxo-thian-4-yl)imidazo[1,2-a]pyridine-2-carboxamide] | 224 nM
11 | Cc1c(C(=O)NCC2(C)CS(=O)(=O)C2)nc2ccc(Oc3ncc(F)cc3OCC(F)(F)F)cn12 [Example 110, 6-[[5-fluoro-3-(2,2,2-trifluoroethoxy)-2-pyridyl]oxy]-3-methyl-N-[(3-methyl-1,1-dioxo-thietan-3-yl)methyl]imidazo[1,2-a]pyridine-2-carboxamide] | 957 nM
12 | Cc1ccc(OCC(F)(F)F)c(Oc2ccc3nc(C(=O)NC4(C)CCS(=O)(=O)CC4)c(C)n3c2)n1 [Example 111] | 298 nM
13 | Cc1c(C(=O)NC2(CC(F)(F)F)CCCOC2)nc2ccc(Oc3ncccc3OCC(F)(F)F)cn12 (stereo not shown) [Example 112, 3-methyl-6-[[3-(2,2,2-trifluoroethoxy)-2-pyridyl]oxy]-N-[3-(2,2,2-trifluoroethyl)tetrahydropyran-3-yl]imidazo[1,2-a]pyridine-2-carboxamide] | 3380 nM
14 | Cc1c(C(=O)N[C@H]2CCC(=O)NC2)nc2ccc(Oc3ncccc3OCC(F)(F)F)cn12 [Example 113, 3-methyl-N-[(3S)-6-oxo-3-piperidyl]-6-[[3-(2,2,2-trifluoroethoxy)-2-pyridyl]oxy]imidazo[1,2-a]pyridine-2-carboxamide] | > 9990 nM
15 | CCOc1cccnc1Oc1ccc2nc(C(=O)NC3(C)CS(=O)(=O)C3)c(CC)n2c1 [Example 114, 6-[(3-ethoxy-2-pyridyl)oxy]-3-ethyl-N-(3-methyl-1,1-dioxo-thietan-3-yl)imidazo[1,2-a]pyridine-2-carboxamide] | 64 nM
16 | CCc1c(C(=O)NC2(C)CCS(=O)(=O)CC2)nc2ccc(Oc3ncccc3OCC(F)(F)F)cn12 [Example 115, 3-ethyl-N-(4-methyl-1,1-dioxo-thian-4-yl)-6-[[3-(2,2,2-trifluoroethoxy)-2-pyridyl]oxy]imidazo[1,2-a]pyridine-2-carboxamide] | 44 nM
17 | CC(C)c1c(C(=O)NC2(C)CCS(=O)(=O)CC2)nc2ccc(Oc3ncccc3OCC(F)(F)F)cn12 [Example 116, 3-isopropyl-N-(4-methyl-1,1-dioxo-thian-4-yl)-6-[[3-(2,2,2-trifluoroethoxy)-2-pyridyl]oxy]imidazo[1,2-a]pyridine-2-carboxamide] | 413 nM
18 | Cc1c(C(=O)NC2(C)CCS(=O)(=O)CC2)nc2c(F)cc(Oc3ncccc3OCC(F)(F)F)cn12 [Example 117, 8-fluoro-3-methyl-N-(4-methyl-1,1-dioxo-thian-4-yl)-6-[[3-(2,2,2-trifluoroethoxy)-2-pyridyl]oxy]imidazo[1,2-a]pyridine-2-carboxamide] | 1.2 nM
19 | Cc1c(C(=O)NC2(C)CCS(=O)(=O)CC2)nc2cc(F)c(Oc3ncc(F)cc3OCC(F)(F)F)cn12 [Example 118, 7-fluoro-6-[[5-fluoro-3-(2,2,2-trifluoroethoxy)-2-pyridyl]oxy]-3-methyl-N-(4-methyl-1,1-dioxo-thian-4-yl)imidazo[1,2-a]pyridine-2-carboxamide] | 1.4 nM
20 | Cc1c(C(=O)NC2(C)CCS(=O)(=O)CC2)nc2cc(F)c(Oc3ncc(Cl)cc3OCC(F)(F)F)cn12 [Example 119, 6-[[5-chloro-3-(2,2,2-trifluoroethoxy)-2-pyridyl]oxy]-7-fluoro-3-methyl-N-(4-methyl-1,1-dioxo-thian-4-yl)imidazo[1,2-a]pyridine-2-carboxamide] | 1 nM
21 | Cc1c(C(=O)NC2(C)CS(=O)(=O)C2)nc2cc(F)c(Oc3ncc(Cl)cc3OCC(F)(F)F)cn12 [Example 120, 6-[[5-chloro-3-(2,2,2-trifluoroethoxy)-2-pyridyl]oxy]-7-fluoro-3-methyl-N-(3-methyl-1,1-dioxo-thietan-3-yl)imidazo[1,2-a]pyridine-2-carboxamide] | 4.3 nM
22 | Cc1c(C(=O)NC2(C)CS(=O)(=O)C2)nc2cc(F)c(Oc3ncc(F)cc3OCC(F)(F)F)cn12 [Example 121, 7-fluoro-6-[[5-fluoro-3-(2,2,2-trifluoroethoxy)-2-pyridyl]oxy]-3-methyl-N-(3-methyl-1,1-dioxo-thietan-3-yl)imidazo[1,2-a]pyridine-2-carboxamide] | 41 nM
